The record followed here is patent US12410208B2, “(2-acetamidyl)thio-beta-D-galactopyranoside derivatives” (Idorsia Pharmaceuticals Ltd, priority 2020, dated 2025).

One experiment deals with human Gal-1 (hGal-1) (Homo sapiens, UniProt P09382). Kind of experiment: Competitive binding assay: biotinylated hGal-1 binding to microplate-adsorbed asialofetuin (ASF), spectrophotometric. As to conditions: hGal-1 binding to asialofetuin; Table 15; R and S epimers of selected Examples also listed; read-out: IC50 (Galectin-1 inhibition). The essentials: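 Spectrophotometric competition readout with ABTS after streptavidin-peroxidase (80 ng/mL, 1 h, 4 °C) detection of bound biotinylated hGal-1.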
Chain of human Gal-1 (hGal-1) (P09382 whole entry): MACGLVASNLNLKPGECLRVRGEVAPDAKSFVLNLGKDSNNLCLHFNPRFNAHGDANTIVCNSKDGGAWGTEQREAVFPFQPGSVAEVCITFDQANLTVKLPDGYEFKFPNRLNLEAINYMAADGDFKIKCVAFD

Experiment [1] deals with biotinylated human Gal-3 (hGal-3) (Homo sapiens, UniProt P17931). Briefly: Competitive binding assay: biotinylated hGal-3 binding to microplate-adsorbed asialofetuin (ASF), spectrophotometric. The essentials:
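Serially diluted compounds competed with asialofetuin on the plate for biotinylated human Gal-3 during a 3 h incubation at 4° C. Streptavidin-peroxidase with ABTS gave the spectrophotometric signal. IC50 values were averaged over repeat runs.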

Where [2] appears, read: Gal-3 inhibition, Table 3, read-out: IC50.
[3] abbreviates: Gal-3 inhibition, Table 5, read-out: IC50.
Where [4] appears, read: Table 8, hGal-3, read-out: IC50 (Gal-3 inhibition).

Structures are written as SMILES. Read-outs that look alike come from different tables or passages of the source. Some results are limits rather than exact numbers.

Chain of biotinylated human Gal-3 (hGal-3) (P17931 whole entry): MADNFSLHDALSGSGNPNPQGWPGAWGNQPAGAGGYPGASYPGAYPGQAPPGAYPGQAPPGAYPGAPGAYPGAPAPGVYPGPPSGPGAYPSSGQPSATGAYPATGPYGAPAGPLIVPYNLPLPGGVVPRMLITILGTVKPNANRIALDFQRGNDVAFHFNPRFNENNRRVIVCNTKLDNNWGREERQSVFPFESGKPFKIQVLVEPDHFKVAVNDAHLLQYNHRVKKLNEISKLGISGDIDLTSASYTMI

Regarding `CC1CCN1C(=O)C(S[C@@H]1O[C@H](CO)[C@H](O)[C@H](n2cc(-c3cc(F)c(F)c(F)c3)nn2)[C@H]1O)C(C)(C)O` (stereo partly drawn) [Example 2.31.204., 2-(((2S,3R,4S,5R,6R)-3,5-Dihydroxy-6-(hydroxymethyl)-4-(4-(3,4,5-trifluorophenyl)-1H-1,2,3-triazol-1-yl)tetrahydro-2H-pyran-2-yl)thio)-3-hydroxy-3-methyl-1-(2-methylazetidin-1-yl)butan-1-one], the IC50 (commonly the point on the concentration scale where inhibition reaches its midpoint) turned out to be 2800 nM on human Gal-1 (hGal-1) and 140 nM in experiment [1] (setting [2]).
For `CN(CC1CC1)C(=O)[C@@H](S[C@@H]1O[C@H](CO)[C@H](O)[C@H](n2cc(-c3cc(F)c(F)c(F)c3)nn2)[C@H]1O)C1(O)CCC1` [Example 2.34.218S., (S)-N-(Cyclopropylmethyl)-2-(((2S,3R,4S,5R,6R)-3,5-dihydroxy-6-(hydroxymethyl)-4-(4-(3,4,5-trifluorophenyl)-1H-1,2,3-triazol-1-yl)tetrahydro-2H-pyran-2-yl)thio)-2-(1-hydroxycyclobutyl)-N-methylacetamide], the figures for the IC50 (at human Gal-1 (hGal-1); in experiment [1] (setting [3])) were 70 nM and 60 nM, respectively.
For the compound `CCN(C)C(=O)C(S[C@@H]1O[C@H](CO)[C@H](O)[C@H](n2cc(-c3cc(F)c(F)c(F)c3)nn2)[C@H]1O)C1(O)CCN(C(=O)OC)CC1` (stereo partly drawn) [Example 2.50.203., Methyl 4-(1-(((2S,3R,4S,5R,6R)-3,5-dihydroxy-6-(hydroxymethyl)-4-(4-(3,4,5-trifluorophenyl)-1H-1,2,3-triazol-1-yl)tetrahydro-2H-pyran-2-yl)thio)-2-(ethyl(methyl)amino)-2-oxoethyl)-4-hydroxypiperidine-1-carboxylate], the IC50 on human Gal-1 (hGal-1) was 100 nM; in experiment [1] (setting [4]), 70 nM.
Regarding `O=C([C@@H](S[C@@H]1O[C@H](CO)[C@H](O)[C@H](n2cc(-c3cc(F)c(F)c(F)c3)nn2)[C@H]1O)C1(O)CCC(F)(F)CC1)N1CC(F)(F)C1` [Example 2.44.227S., (S)-2-(4,4-Difluoro-1-hydroxycyclohexyl)-1-(3,3-difluoroazetidin-1-yl)-2-(((2S,3R,4S,5R,6R)-3,5-dihydroxy-6-(hydroxymethyl)-4-(4-(3,4,5-trifluorophenyl)-1H-1,2,3-triazol-1-yl)tetrahydro-2H-pyran-2-yl)thio)ethan-1-one], the results for the IC50 (on human Gal-1 (hGal-1); in experiment [1] (setting [3])) were 230 nM and 100 nM, respectively.
As for `CN(C)C(=O)C(S[C@@H]1O[C@H](CO)[C@H](O)[C@H](n2cc(-c3cc(F)c(F)c(F)c3)nn2)[C@H]1O)C1(O)CCOCC1` (stereo partly drawn) [Example 2.41.201., 2-(((2S,3R,4S,5R,6R)-3,5-Dihydroxy-6-(hydroxymethyl)-4-(4-(3,4,5-trifluorophenyl)-1H-1,2,3-triazol-1-yl)tetrahydro-2H-pyran-2-yl)thio)-2-(4-hydroxytetrahydro-2H-pyran-4-yl)-N,N-dimethylacetamide], the IC50 at human Gal-1 (hGal-1) was determined as 1800 nM; in experiment [1] (Gal-3 inhibition, Table 4, read-out: IC50), 180 nM.
With `CCN(C)C(=O)[C@@H](S[C@@H]1O[C@H](CO)[C@H](O)[C@H](n2cc(-c3cc(F)c(F)c(F)c3)nn2)[C@H]1O)C1(O)CCC1` [Example 2.34.203S., (S)-2-(((2S,3R,4S,5R,6R)-3,5-Dihydroxy-6-(hydroxymethyl)-4-(4-(3,4,5-trifluorophenyl)-1H-1,2,3-triazol-1-yl)tetrahydro-2H-pyran-2-yl)thio)-N-ethyl-2-(1-hydroxycyclobutyl)-N-methylacetamide], the IC50 on human Gal-1 (hGal-1) was 170 nM; in experiment [1] (setting [3]), 120 nM.
Take `CCN(C)C(=O)C(S[C@@H]1O[C@H](CO)[C@H](O)[C@H](n2cc(-c3cc(C)cc(C#N)c3)nn2)[C@H]1O)C1(O)CCOCC1` (stereo partly drawn) [Example 19.41.203., 2-(((2S,3R,4S,5R,6R)-4-(4-(3-Cyano-5-methylphenyl)-1H-1,2,3-triazol-1-yl)-3,5-dihydroxy-6-(hydroxymethyl)tetrahydro-2H-pyran-2-yl)thio)-N-ethyl-2-(4-hydroxytetrahydro-2H-pyran-4-yl)-N-methylacetamide]: the IC50 on human Gal-1 (hGal-1) was 150 nM; in experiment [1] (Table 11, hGal-3, read-out: IC50 (Gal-3 inhibition)), 150 nM.
Take `CC(C)(O)C(S[C@@H]1O[C@H](CO)[C@H](O)[C@H](n2cc(-c3cc(F)c(F)c(F)c3)nn2)[C@H]1O)C(=O)N1CCC1` (stereo partly drawn) [Example 2.31.206., 1-(Azetidin-1-yl)-2-(((2S,3R,4S,5R,6R)-3,5-dihydroxy-6-(hydroxymethyl)-4-(4-(3,4,5-trifluorophenyl)-1H-1,2,3-triazol-1-yl)tetrahydro-2H-pyran-2-yl)thio)-3-hydroxy-3-methylbutan-1-one]: the IC50 on human Gal-1 (hGal-1) was 1400 nM; in experiment [1] (setting [2]), 200 nM.
On to `CCN(C)C(=O)[C@@H](S[C@@H]1O[C@H](CO)[C@H](O)[C@H](n2cc(-c3cc(F)c(F)c(F)c3)nn2)[C@H]1O)C1(O)CCN(S(=O)(=O)C2CC2)CC1` [Example 2.51.203S., (S)-2-(1-(Cyclopropylsulfonyl)-4-hydroxypiperidin-4-yl)-2-(((2S,3R,4S,5R,6R)-3,5-dihydroxy-6-(hydroxymethyl)-4-(4-(3,4,5-trifluorophenyl)-1H-1,2,3-triazol-1-yl)tetrahydro-2H-pyran-2-yl)thio)-N-ethyl-N-methylacetamide [1,3-di-deoxy-1-((2-(1-(cyclopropylsulfonyl)-4-hydroxypiperidin-4-yl)-N-ethyl-N-methylacetamide)-(S)-thio)-3-[4-(3,4,5-trifluorophenyl)-1H-1,2,3-triazol-1-yl]-β-D-galactopyranoside]], for which the IC50 on human Gal-1 (hGal-1) was 30 nM; in experiment [1] (setting [4]), 20 nM.
As to `CCN(C)C(=O)[C@H](S[C@@H]1O[C@H](CO)[C@H](O)[C@H](n2cc(-c3cc(F)c(F)c(F)c3)nn2)[C@H]1O)C1(O)CCOCC1` [Example 2.41.203R., (R)-2-(((2S,3R,4S,5R,6R)-3,5-Dihydroxy-6-(hydroxymethyl)-4-(4-(3,4,5-trifluorophenyl)-1H-1,2,3-triazol-1-yl)tetrahydro-2H-pyran-2-yl)thio)-N-ethyl-2-(4-hydroxytetrahydro-2H-pyran-4-yl)-N-methylacetamide], the IC50 is greater than 39800 nM at human Gal-1 (hGal-1) and 4430 nM in experiment [1] (setting [3]).
`CO[C@@H]1[C@@H](n2cc(-c3cc(F)c(F)c(F)c3)nn2)[C@@H](O)[C@@H](CO)O[C@H]1SC(C(=O)N(C)CC1CC1)C1(O)CCC(F)(F)CC1` (stereo partly drawn) [Example 2.44.218.I., N-(Cyclopropylmethyl)-2-(4,4-difluoro-1-hydroxycyclohexyl)-2-(((2S,3R,4S,5R,6R)-5-hydroxy-6-(hydroxymethyl)-3-methoxy-4-(4-(3,4,5-trifluorophenyl)-1H-1,2,3-triazol-1-yl)tetrahydro-2H-pyran-2-yl)thio)-N-methylacetamide]: the IC50 on human Gal-1 (hGal-1) turned out to be 80 nM; in experiment [1] (Table 12, hGal-3, read-out: IC50 (Gal-3 inhibition)) it was 30 nM.
For `CN(CC(C)(C)F)C(=O)[C@@H](S[C@@H]1O[C@H](CO)[C@H](O)[C@H](n2cc(-c3cc(F)c(F)c(F)c3)nn2)[C@H]1O)C1(O)CCC1` [Example 2.34.222S., (S)-2-(((2S,3R,4S,5R,6R)-3,5-Dihydroxy-6-(hydroxymethyl)-4-(4-(3,4,5-trifluorophenyl)-1H-1,2,3-triazol-1-yl)tetrahydro-2H-pyran-2-yl)thio)-N-(2-fluoro-2-methylpropyl)-2-(1-hydroxycyclobutyl)-N-methylacetamide], the half-inhibitory concentration (IC50) stood at 110 nM at human Gal-1 (hGal-1) and 90 nM in experiment [1] (setting [3]).
